Results taken from patent US20250361230A1, “LATS Inhibitors and Uses Thereof” (The USA, as Represented by the Secretary, Dept. of Heath …, priority 2022, published 2025).

Biological target: T1, LATS2 (Homo sapiens, UniProt Q9NRM7)
T1 sequence (Q9NRM7 1-1088): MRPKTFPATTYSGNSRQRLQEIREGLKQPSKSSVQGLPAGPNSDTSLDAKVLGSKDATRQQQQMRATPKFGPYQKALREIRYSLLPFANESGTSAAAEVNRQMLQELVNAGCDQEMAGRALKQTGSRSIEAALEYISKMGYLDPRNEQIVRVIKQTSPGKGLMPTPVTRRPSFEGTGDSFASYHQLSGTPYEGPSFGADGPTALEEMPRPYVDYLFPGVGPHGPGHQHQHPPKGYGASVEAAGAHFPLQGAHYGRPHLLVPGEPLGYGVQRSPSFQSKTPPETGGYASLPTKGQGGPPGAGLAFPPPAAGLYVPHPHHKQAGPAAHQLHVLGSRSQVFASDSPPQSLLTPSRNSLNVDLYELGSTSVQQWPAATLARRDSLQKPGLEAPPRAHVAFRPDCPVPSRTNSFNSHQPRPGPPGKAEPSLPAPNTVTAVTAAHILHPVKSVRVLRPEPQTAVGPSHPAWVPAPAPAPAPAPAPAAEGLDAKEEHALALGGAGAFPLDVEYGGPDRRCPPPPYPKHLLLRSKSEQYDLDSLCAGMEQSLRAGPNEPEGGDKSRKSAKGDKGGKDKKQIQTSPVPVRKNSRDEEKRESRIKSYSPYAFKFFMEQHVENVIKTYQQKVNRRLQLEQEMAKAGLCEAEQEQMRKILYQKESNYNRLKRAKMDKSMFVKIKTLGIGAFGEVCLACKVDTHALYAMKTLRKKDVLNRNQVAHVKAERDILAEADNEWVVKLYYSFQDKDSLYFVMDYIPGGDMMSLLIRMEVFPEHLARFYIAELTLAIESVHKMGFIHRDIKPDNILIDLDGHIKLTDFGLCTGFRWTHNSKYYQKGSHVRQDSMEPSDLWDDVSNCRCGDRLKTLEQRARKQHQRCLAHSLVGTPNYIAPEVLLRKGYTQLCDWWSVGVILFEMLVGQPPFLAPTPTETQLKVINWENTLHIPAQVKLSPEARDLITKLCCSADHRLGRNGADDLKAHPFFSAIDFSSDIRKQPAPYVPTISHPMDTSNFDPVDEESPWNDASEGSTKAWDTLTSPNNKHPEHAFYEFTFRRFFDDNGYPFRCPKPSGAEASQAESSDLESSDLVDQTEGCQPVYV
Test: RBC HotSpot kinase assay (33P-ATP, P81 filter-binding), LATS2
Assay type: biochemical
Conditions: Table 28, biochemical kinase assay; read-out: LATS2 IC50
Procedure, shortened: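 IC50 in nM was derived from 10-point, single-replicate titrations. Read-out was radiometric P81 filter binding following a 2 h room-temperature reaction with 33P-ATP, after 20 min compound preincubation.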

First: C[C@@H]1CN(C2COC2)C[C@H](C)[C@@]1(O)c1c(F)cc(-c2ccnc3[nH]cc(F)c23)cc1F [Compound 45, (3S,4s,5R)-4-(2,6-difluoro-4-(3-fluoro-1H-pyrrolo[2,3-b]pyridin-4-yl)phenyl)-3, S-dimethyl-1-(oxetan-3-yl)piperidin-4-ol]
Second: C[C@@H]1CN(CC(N)=O)C[C@H](C)[C@@]1(O)c1c(F)cc(-c2ccnc3[nH]cc(F)c23)cc1F [Compound 88, 2-((3R,4s,5S)-4-(2,6-difluoro-4-(3-fluoro-1H-pyrrolo[2,3-b]pyridin-4-yl)phenyl)-4-hydroxy-3,5-dimethylpiperidin-1-yl)acetamide]
The IC50 of the first is 3.4-fold higher: 9.8 nM for the first, 2.9 nM for the second. The second is the more potent here.

`C[C@@H]1CNC[C@H](C)[C@@]1(O)c1ccc(-c2ccnc3[nH]cc(F)c23)cc1OC(F)(F)F` [Compound 14, (3S,4s,5R)-4-(4-(3-fluoro-1H-pyrrolo[2,3-b]pyridin-4-yl)-2-(trifluoromethoxy)phenyl)-3,5-dimethylpiperidin-4-ol] and `Cc1cc(-c2ccnc3[nH]cc(F)c23)ccc1[C@@]1(O)[C@H](C)CNC[C@@H]1C` [Compound 9, (3S,4s,5R)-4-(4-(3-fluoro-1H-pyrrolo[2,3-b]pyridin-4-yl)-2-methylphenyl)-3,5-dimethylpiperidin-4-ol] are within 1.5-fold of each other in IC50: 5.5 nM for the first, 6.6 nM for the second.

Compared with `c1cc(-c2ccc(C3CCCCN3)cc2)c2cc[nH]c2n1` (stereo not shown) [Compound 271, 4-(4-(piperidin-2-yl)phenyl)-1H-pyrrolo[2,3-b]pyridine], `c1cc(-c2ccc3c(c2)CCNC3)c2cc[nH]c2n1` [Compound 267, 6-(1H-pyrrolo[2,3-b]pyridin-4-yl)-1,2,3,4-tetrahydroiso-quinoline] is 2.5-fold lower in IC50: 25 nM for the first, 10 nM for the second.

Going from `Cc1cc(-c2ccnc3[nH]cc(F)c23)cc(F)c1[C@@]1(O)[C@H](C)CN(C2CCS(=O)(=O)CC2)C[C@@H]1C` [Compound 57, 4-((3R,4s,5S)-4-(2-fluoro-4-(3-fluoro-1H-pyrrolo[2,3-b]pyridin-4-yl)-6-methylphenyl)-4-hydroxy-3,5-dimethylpiperidin-1-yl)tetrahydro-2H-thiopyran 1,1-dioxide] to `COC(=O)c1c[nH]c2nccc(-c3cc(C)c([C@@]4(O)[C@H](C)CN(C5CCS(=O)(=O)CC5)C[C@@H]4C)c(F)c3)c12` [Compound 309, methyl 4-(4-((3S,4s,5R)-1-(1,1-dioxidotetrahydro-2H-thiopyran-4-yl)-4-hydroxy-3,5-dimethylpiperidin-4-yl)-3-fluoro-5-methylphenyl)-1H-pyrrolo[2,3-b]pyridine-3-carboxylate], the IC50 falls from 5.3 nM to 3 nM (1.8-fold). The second is the more potent here.

`Cc1cc(-c2ccnc3[nH]cc(F)c23)ccc1[C@@]1(O)[C@H](C)CN(C2CCC2)C[C@@H]1C` [Compound 54, (3R,4s,5S)-1-cyclobutyl-4-(4-(3-fluoro-1H-pyrrolo[2,3-b]pyridin-4-yl)-2-methylphenyl)-3,5-dimethylpiperidin-4-ol] and `Cc1cc(-c2ccnc3[nH]cc(F)c23)ccc1[C@@]1(O)[C@H](C)CN(C(C)C)C[C@@H]1C` [Compound 29, (3S,4s, 5R)-4-(4-(3-fluoro-1H-pyrrolo[2,3-b]pyridin-4-yl)-2-methylphenyl)-1-isopropyl-3,5-dimethylpiperidin-4-ol] are within 1.5-fold of each other in IC50: 2.3 nM for the first, 2.2 nM for the second.

First: C[C@@H]1CN(C)C[C@H](C)[C@@]1(O)c1ccc(-c2ccnc3[nH]cc(F)c23)nc1 [Compound 41, (3R,4s,5S)-4-(6-(3-fluoro-1H-pyrrolo[2,3-b]pyridin-4-yl)pyridin-3-yl)-1,3,5-trimethylpiperidin-4-ol]
Second: C[C@@H]1CN(C)C[C@H](C)[C@@]1(O)c1ccc(-c2ccnc3[nH]cc(F)c23)cc1 [Compound 39, (3R,4s,5S)-4-(4-(3-fluoro-1H-pyrrolo[2,3-b]pyridin-4-yl)phenyl)-1,3,5-trimethylpiperidin-4-ol]
The IC50 of the first is 11-fold higher: 268 nM for the first, 24.7 nM for the second.

First: Fc1c[nH]c2nccc(-c3ccc(C4CCNCC4)cc3)c12 [Compound 169, 3-fluoro-4-(4-(piperidin-4-yl)phenyl)-1H-pyrrolo[2,3-b]pyridine]
Second: Clc1c[nH]c2nccc(-c3ccc(C4CCNCC4)cc3)c12 [Compound 173, 3-chloro-4-(4-(piperidin-4-yl)phenyl)-1H-pyrrolo[2,3-b]pyridine]
The IC50 of the first is 1.8-fold higher: 14 nM for the first, 8 nM for the second. The second is the more potent here.

`Cc1cc(-c2ccnc3[nH]ccc23)ccc1C1CCNCC1` [Compound 177, 4-(3-methyl-4-(piperidin-4-yl)phenyl)-1H-pyrrolo[2,3-b]pyridine] and `C[C@@H]1CNC[C@H](C)[C@@]1(O)c1ccc(-c2ccnc3[nH]cc(F)c23)cc1` [Compound 2, (3R,4s,5S)-4-(4-(3-fluoro-1H-pyrrolo[2,3-b]pyridin-4-yl)phenyl)-3,5-dimethylpiperidin-4-ol] are within 1.5-fold of each other in IC50: 14 nM for the first, 12.5 nM for the second.

Going from `COC(=O)c1c[nH]c2nccc(-c3ccc(CN)cc3)c12` [Compound 223, methyl 4-(4-(aminomethyl)phenyl)-1H-pyrrolo[2,3-b]pyridine-3-carboxylate] to `Cc1cccc(-c2c[nH]c3nccc(-c4ccc(CN)cc4)c23)c1` [Compound 230, (4-(3-(m-tolyl)-1H-pyrrolo[2,3-b]pyridin-4-yl)phenyl) methanamine], the IC50 falls from 1420 nM to 16 nM (89-fold). The second is the more potent here.

Compared with `Cc1cc(-c2ccnc3[nH]cc(F)c23)cc(F)c1[C@@]1(O)[C@H](C)CN(C(=O)[C@H](N)CO)C[C@@H]1C` [Compound 312, (R)-2-amino-1-((3S,4R,5R)-4-(2-fluoro-4-(3-fluoro-1H-pyrrolo[2,3-b]pyridin-4-yl)-6-methylphenyl)-4-hydroxy-3,5-dimethylpiperidin-1-yl)-3-hydroxypropan-1-one], `C[C@@H]1CNC[C@H](C)[C@@]1(O)c1c(F)cc(-c2ccnc3[nH]cc(F)c23)cc1F` [Compound 13] is 2.1-fold higher in IC50: 3.5 nM for the first, 7.2 nM for the second. The first is the more potent here.

Going from `CC(C)(N)c1ccc(-c2ccnc3[nH]cc(F)c23)cc1` [Compound 238, 2-(4-(3-fluoro-1H-pyrrolo[2,3-b]pyridin-4-yl)phenyl)propan-2-amine] to `O=C([C@H]1CCCN1)N1CCC(O)(c2ccc(-c3ccnc4[nH]cc(F)c34)cc2)CC1` [Compound 142], the IC50 rises from 1.2 nM to 4.4 nM (3.7-fold).

Same assay, conditions: Table 32, biochemical kinase assay; read-out: LATS2 IC50

First: NCC(O)(c1ccc(Cl)cc1)c1ccc(-c2ccnc3[nH]cc(-c4ccccc4)c23)cc1 (stereo not shown) [Compound 1006, 2-amino-1-(4-chlorophenyl)-1-(4-(3-phenyl-1H-pyrrolo[2,3-b]pyridin-4-yl)phenyl)ethan-1-ol]
Second: NCC(O)(c1ccc(Cl)cc1)c1ccc(-c2ccnc3[nH]cc(F)c23)cc1 (stereo not shown) [Compound 1002, 2-amino-1-(4-chlorophenyl)-1-(4-(3-fluoro-1H-pyrrolo[2,3-b]pyridin-4-yl)phenyl)ethan-1-ol]
The IC50 of the first is 1.8-fold higher: 20 nM for the first, 11.1 nM for the second.

Same assay, conditions: biochemical kinase inhibition; read-out: LATS2 IC50

Going from `Cc1cc(-c2ccnc3[nH]cc(C#N)c23)cc(F)c1[C@@]1(O)[C@H](C)CN(C(=O)C(N)C(F)(F)F)C[C@@H]1C` (stereo partly drawn) [Compound 2017, 4-(4-((3S,4s,5R)-1-(2-amino-3,3,3-trifluoropropanoyl)-4-hydroxy-3,5-dimethylpiperidin-4-yl)-3-fluoro-5-methylphenyl)-1H-pyrrolo[2,3-b]pyridine-3-carbonitrile] to `Cc1cc(-c2ccnc3[nH]cc(C#N)c23)cc(F)c1[C@@]1(O)[C@H](C)CN(C(=O)[C@H](C)N)C[C@@H]1C` [Compound 2011, 4-(4-((3S,4R,5R)-1-(L-alanyl)-4-hydroxy-3,5-dimethylpiperidin-4-yl)-3-fluoro-5-methylphenyl)-1H-pyrrolo[2,3-b]pyridine-3-carbonitrile], the IC50 rises from 6.9 nM to 16 nM (2.3-fold). The first is the more potent here.

`Cc1cc(-c2ccnc3[nH]cc(C#N)c23)cc(F)c1[C@@]1(O)[C@H](C)CNC[C@@H]1C` [Compound 2024, 4-(3-fluoro-4-((3S,4s,5R)-4-hydroxy-3,5-dimethylpiperidin-4-yl)-5-methylphenyl)-1H-pyrrolo[2,3-b]pyridine-3-carbonitrile] and `CNCC(=O)N1C[C@@H](C)[C@](O)(c2c(C)cc(-c3ccnc4[nH]cc(C#N)c34)cc2F)[C@@H](C)C1` [Compound 2012, 4-(3-fluoro-4-((3S,4s,5R)-4-hydroxy-3,5-dimethyl-1-(methylglycyl)piperidin-4-yl)-5-methylphenyl)-1H-pyrrolo[2,3-b]pyridine-3-carbonitrile] are within 1.5-fold of each other in IC50: 4.2 nM for the first, 2.9 nM for the second.
